These results are taken from ChEMBL document CHEMBL5223143, “Identification of novel benzimidazole derivatives as highly potent AMPK activators with anti-diabetic profiles” (Bioorg Med Chem Lett, 2023).

The target of series [1] is AMPK alpha2/beta2/gamma1 (Homo sapiens) (UniProt P54646+O43741+P54619). Kind of series: Activation of human recombinant AMPK A2/B2/G1 assessed as increase in AMPK phosphorylation using FL-peptide as substrate incubated for 120 mins by EZ reader method. The settings on record: filed as activator. Type of series: protein-complex assay.
The next series deals with Cytochrome P450 2C9 (Homo sapiens, UniProt P11712). The series can be described thus: Inhibition of CYP2C9 in human liver microsomes using tolbutamide as substrate. In kind it is ADME, Microsome. For orientation: Liver microsomes are a subcellular fraction often used to study metabolism.
Series [2] relates to Mus musculus. Kind of series: Antidiabetic activity against diabetic KKAy mouse model assessed as acute glucose lowering effect at 0.3 to 3 mg/kg,po bid. In kind it is functional, organism-based. The settings on record: dose 0.3-3 mg/kg.
Series [3] relates to Mus musculus. Kind of series: Antidiabetic activity against diabetic KKAy mouse model assessed as decrease in HbA1c level at 0.3 to 3 mg/kg,po bid observed upto 21 days. In kind it is functional, organism-based. The settings on record: dose 0.3-3 mg/kg, time <= 21.0 day.
A short description of series [4]: Protein binding in serum (unknown origin) assessed as free fraction by equilibrium dialysis method. In kind it is ADME, cell-free. (In general: In equilibrium dialysis free small molecules cross a membrane that holds back macromolecules.)
Series [5] has as its system Mus musculus. Kind of series: Antidiabetic activity against diabetic KKAy mouse model assessed as decrease in plasma glucose level at 0.3 to 3 mg/kg,po bid observed upto 21 days. Type of series: functional, organism-based. The settings on record: dose 0.3-3 mg/kg, time <= 21.0 day.
In series [6] the test system is Mus musculus. Kind of series: Antidiabetic activity against diabetic KKAy mouse model assessed as increase in ACC phosphorylation in skeletal muscle at 0.3 to 3 mg/kg,po bid. Type of series: functional, organism-based. To be noted: dose 0.3-3 mg/kg.
A short description of series [7]: Metabolic stability in rat liver microsomes assessed as compound remaining incubated for 30 mins. To be noted: read-out: Stability. In kind it is ADME, Microsome.
The nature of series [8]: Cmax in rat at 0.5 mg/kg,iv. Type of series: ADME, organism-based. Set-up: dose 0.5 mg/kg, route iv. To be noted: in vivo.
Series [9] in a line: […] in rat liver at 0.5 mg/kg,iv. Type of series: ADME, organism-based.
Series [10] is described as follows: […] in rat muscle tissue at 0.5 mg/kg,iv. In kind it is ADME, organism-based.
In the next series the target is Cytochrome P450 2C19 (Homo sapiens, UniProt P33261). The series can be described thus: Inhibition of CYP2C19 in human liver microsomes using mephenytoin as substrate. In kind it is ADME, Microsome.
Series [11] can be described thus: Metabolic stability in human liver microsomes assessed as compound remaining incubated for 30 mins. Type of series: ADME, Microsome. The settings on record: read-out: Stability.
The next series addresses Cytochrome P450 3A4 (Homo sapiens, UniProt P08684). The series can be described thus: Inhibition of CYP3A4 in human liver microsomes using terfenedine as substrate. Type of series: ADME, Microsome.
The next series concerns the target T1, Cytochrome P450 1A2 (Homo sapiens, UniProt P05177).
T1 sequence (P05177 whole entry): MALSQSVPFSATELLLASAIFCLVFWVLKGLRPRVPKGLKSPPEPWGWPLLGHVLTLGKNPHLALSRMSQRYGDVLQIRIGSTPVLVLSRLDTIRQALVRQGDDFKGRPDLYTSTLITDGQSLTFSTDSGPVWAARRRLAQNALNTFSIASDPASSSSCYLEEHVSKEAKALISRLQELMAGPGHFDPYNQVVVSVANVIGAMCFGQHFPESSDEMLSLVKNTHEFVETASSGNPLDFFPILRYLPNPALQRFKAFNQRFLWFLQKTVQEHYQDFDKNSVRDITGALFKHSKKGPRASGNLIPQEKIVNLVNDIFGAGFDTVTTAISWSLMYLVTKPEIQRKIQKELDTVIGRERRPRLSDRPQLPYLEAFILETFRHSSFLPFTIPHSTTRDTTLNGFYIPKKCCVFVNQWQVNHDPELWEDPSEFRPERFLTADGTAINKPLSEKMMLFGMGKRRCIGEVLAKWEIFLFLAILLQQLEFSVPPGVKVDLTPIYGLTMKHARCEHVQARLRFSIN
Kind of series: Inhibition of CYP1A2 in human liver microsomes using 7-ethoxyresorufin as substrate. In kind it is ADME, Microsome.

The nature of series [12]: Total clearance in rat at 0.5 mg/kg,iv. Type of series: ADME, organism-based. To be noted: in vivo.
Series [13] can be described thus: AUC in rat at 1 mg/kg,po. Also noted: dose 1 mg/kg, route po. Type of series: ADME, organism-based. The settings on record: in vivo.
The target of another series is Cytochrome P450 2D6 (Homo sapiens, UniProt P10635). The series can be described thus: Inhibition of CYP2D6 in human liver microsomes using dextromethorphan as substrate. Type of series: ADME, Microsome.
In a further series the test system is L6. Kind of series: Activation of AMPK alpha2beta2gamma1 in rat L6 cells assessed as increase in AMPK phosphorylation by ELISA assay. In kind it is cell-based. The settings on record: filed as activator. (In general: An ELISA detects its analyte on a solid surface through an enzyme-linked reagent.)

The source made the active and inactive calls. The calls are words filed in the database; no cut-off is given here. Where only a bound is given, the exact number is not on record here.

AMPK alpha2/beta2/gamma1 (Homo sapiens), sequence (O43741 whole entry, looked up): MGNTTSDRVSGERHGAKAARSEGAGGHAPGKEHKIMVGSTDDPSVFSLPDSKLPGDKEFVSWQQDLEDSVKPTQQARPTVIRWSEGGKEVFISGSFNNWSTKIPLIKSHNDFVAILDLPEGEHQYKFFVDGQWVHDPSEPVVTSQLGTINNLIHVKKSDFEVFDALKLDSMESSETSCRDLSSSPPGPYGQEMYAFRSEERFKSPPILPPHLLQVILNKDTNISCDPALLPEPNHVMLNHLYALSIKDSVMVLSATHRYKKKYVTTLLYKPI
AMPK alpha2/beta2/gamma1 (Homo sapiens), sequence (P54619 whole entry, looked up): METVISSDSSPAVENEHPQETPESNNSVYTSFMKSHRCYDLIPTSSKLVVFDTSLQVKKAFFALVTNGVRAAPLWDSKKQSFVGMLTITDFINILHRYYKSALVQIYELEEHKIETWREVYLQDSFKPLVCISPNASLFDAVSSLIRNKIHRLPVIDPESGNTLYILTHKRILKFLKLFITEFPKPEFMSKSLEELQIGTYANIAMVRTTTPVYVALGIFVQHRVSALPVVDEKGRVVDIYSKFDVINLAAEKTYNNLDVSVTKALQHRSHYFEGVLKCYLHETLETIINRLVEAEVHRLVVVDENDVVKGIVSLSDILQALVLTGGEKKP
AMPK alpha2/beta2/gamma1 (Homo sapiens), sequence (P54646 whole entry, looked up): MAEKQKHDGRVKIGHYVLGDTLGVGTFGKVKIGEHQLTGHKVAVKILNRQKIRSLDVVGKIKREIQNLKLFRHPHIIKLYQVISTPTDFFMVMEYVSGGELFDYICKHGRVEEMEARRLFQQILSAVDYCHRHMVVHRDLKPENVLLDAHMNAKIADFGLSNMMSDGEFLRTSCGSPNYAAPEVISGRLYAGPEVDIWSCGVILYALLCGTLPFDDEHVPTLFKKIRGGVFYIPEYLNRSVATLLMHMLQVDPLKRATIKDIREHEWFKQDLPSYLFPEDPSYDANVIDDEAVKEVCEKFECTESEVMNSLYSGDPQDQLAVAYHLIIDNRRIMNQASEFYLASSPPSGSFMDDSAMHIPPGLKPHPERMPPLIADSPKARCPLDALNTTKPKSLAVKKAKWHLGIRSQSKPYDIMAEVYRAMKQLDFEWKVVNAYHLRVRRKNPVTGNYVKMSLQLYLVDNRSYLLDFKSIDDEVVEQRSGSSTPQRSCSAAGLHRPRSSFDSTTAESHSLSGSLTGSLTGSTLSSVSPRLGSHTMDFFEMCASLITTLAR
Cytochrome P450 2C9, sequence (P11712 whole entry): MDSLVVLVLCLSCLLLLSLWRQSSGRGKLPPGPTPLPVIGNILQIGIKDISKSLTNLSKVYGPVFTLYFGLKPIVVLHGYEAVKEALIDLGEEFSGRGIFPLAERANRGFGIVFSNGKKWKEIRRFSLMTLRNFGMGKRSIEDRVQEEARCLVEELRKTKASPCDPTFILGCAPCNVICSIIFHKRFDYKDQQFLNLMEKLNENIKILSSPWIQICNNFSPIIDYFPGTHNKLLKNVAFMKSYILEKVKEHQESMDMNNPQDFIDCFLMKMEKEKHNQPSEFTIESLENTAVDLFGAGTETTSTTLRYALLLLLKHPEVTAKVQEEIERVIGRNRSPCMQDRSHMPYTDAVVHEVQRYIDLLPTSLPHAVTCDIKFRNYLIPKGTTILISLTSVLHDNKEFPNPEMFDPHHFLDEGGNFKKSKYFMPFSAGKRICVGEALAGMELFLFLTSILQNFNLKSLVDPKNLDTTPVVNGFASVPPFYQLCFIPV
Cytochrome P450 2C19, sequence (P33261 whole entry): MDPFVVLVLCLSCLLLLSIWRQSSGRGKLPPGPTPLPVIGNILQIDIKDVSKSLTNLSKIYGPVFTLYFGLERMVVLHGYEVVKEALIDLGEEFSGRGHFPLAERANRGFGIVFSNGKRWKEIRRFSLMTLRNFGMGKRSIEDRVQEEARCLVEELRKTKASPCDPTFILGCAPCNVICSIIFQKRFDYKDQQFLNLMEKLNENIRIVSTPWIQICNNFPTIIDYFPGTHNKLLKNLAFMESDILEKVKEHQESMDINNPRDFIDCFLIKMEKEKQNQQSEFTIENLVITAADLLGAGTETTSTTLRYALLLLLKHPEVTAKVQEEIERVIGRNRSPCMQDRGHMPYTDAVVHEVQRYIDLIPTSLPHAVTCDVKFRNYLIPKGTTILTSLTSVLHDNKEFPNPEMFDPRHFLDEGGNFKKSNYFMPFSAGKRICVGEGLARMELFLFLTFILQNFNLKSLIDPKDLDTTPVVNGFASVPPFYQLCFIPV
Cytochrome P450 2D6, sequence (P10635 whole entry): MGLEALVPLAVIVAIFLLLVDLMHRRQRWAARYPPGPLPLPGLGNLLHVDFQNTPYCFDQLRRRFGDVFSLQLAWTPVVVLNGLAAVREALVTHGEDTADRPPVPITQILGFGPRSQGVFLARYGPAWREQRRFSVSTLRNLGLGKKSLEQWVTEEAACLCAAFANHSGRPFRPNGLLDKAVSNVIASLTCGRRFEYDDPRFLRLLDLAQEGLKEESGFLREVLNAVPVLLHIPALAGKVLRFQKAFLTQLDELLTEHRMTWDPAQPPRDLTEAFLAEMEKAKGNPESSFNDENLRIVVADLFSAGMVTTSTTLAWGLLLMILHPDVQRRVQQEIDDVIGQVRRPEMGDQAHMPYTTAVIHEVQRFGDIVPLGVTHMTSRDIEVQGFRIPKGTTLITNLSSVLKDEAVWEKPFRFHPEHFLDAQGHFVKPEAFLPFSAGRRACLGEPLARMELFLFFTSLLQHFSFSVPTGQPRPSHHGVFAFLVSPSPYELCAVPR
Cytochrome P450 3A4, sequence (P08684 whole entry): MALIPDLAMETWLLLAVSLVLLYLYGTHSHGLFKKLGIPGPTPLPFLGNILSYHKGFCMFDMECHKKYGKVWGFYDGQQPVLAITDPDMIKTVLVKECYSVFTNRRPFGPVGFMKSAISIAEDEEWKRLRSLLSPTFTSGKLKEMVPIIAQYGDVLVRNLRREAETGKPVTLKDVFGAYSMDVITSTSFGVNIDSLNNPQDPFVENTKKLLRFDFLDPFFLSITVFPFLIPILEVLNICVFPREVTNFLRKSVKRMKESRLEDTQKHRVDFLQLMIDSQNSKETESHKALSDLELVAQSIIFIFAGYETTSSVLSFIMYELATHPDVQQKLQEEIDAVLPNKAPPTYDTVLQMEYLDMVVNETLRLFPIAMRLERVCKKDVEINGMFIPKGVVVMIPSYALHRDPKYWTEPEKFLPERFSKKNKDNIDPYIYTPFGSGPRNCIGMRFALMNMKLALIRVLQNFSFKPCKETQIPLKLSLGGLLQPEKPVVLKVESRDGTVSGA

As for `O[C@@H]1CO[C@H]2[C@@H]1OC[C@H]2Oc1nc2nc(NCCCc3ccccc3)c(Cl)cc2[nH]1`, the EC150 in series [1] stood at 15 µM.

Take `O[C@@H]1CO[C@H]2[C@@H]1OC[C@H]2Oc1nc2nc(N[C@H]3CCc4ccccc43)c(Cl)cc2[nH]1`: the EC150 in series [1] worked out at 0.0031 µM.

`CN(Cc1ccccc1)c1nc2nc(O[C@@H]3CO[C@H]4[C@@H]3OC[C@H]4O)[nH]c2cc1Cl`: the EC150 in series [1] amounted to 4.9 µM.

In the case of `O[C@@H]1CO[C@H]2[C@@H]1OC[C@H]2Oc1nc2nc(NCc3ccccc3C(F)(F)F)c(Cl)cc2[nH]1`, the EC150 in series [1] is 8.9 µM.

With `OCc1ccccc1CNc1nc2nc(O[C@@H]3CO[C@H]4[C@@H]3OC[C@H]4O)[nH]c2cc1Cl`, the EC150 in [1] came to 9.5 µM.

Regarding `O[C@@H]1CO[C@H]2[C@@H]1OC[C@H]2Oc1nc2nc(NCc3ccccc3)c(Cl)cc2[nH]1`, the EC150 in series [1] was found to be 0.16 µM.

Regarding `COCCOc1cc(F)c2c(c1)CC[C@@H]2Nc1nc2nc(O[C@@H]3CO[C@H]4[C@@H]3OC[C@H]4O)[nH]c2cc1Cl`, the IC50 on Cytochrome P450 2C9, at Cytochrome P450 2C19, against Cytochrome P450 3A4, at Cytochrome P450 1A2 and at Cytochrome P450 2D6 was more than 20 µM each time. In addition, the outcome with Mus musculus [2] and in the series with Mus musculus [5] was Active. The Activity result in the series with Mus musculus [3] and in the series with Mus musculus [6] was “Dose-Dependent Effect” throughout. Besides, the EC150 stood at 0.0016 µM in series [1] and 0.0443 µM in the series with L6. In addition, in series [4], the fraction unbound turned out to be 0.031. For the same compound, the remaining at 0.5 h in series [7] was 81%; in series [11] it was 91%. Moreover, in series [8], the Cmax turned out to be 65.4 ng/mL. In addition, the results for the Kp in series [9] and in [10] were 5.64 and 1.51, respectively. The compound further registered a clearance in [12] of 9.02 mL/min/kg. This compound also registered an AUC in series [13] of 347 ng·h/mL.

Consider `Cn1cc(-c2cc(F)c3c(c2)CC[C@@H]3Nc2nc3nc(O[C@@H]4CO[C@H]5[C@@H]4OC[C@H]5O)[nH]c3cc2Cl)cn1`, for which the EC150 worked out at 0.0044 µM in [1] and 0.0847 µM with L6.

Regarding `O[C@@H]1CO[C@H]2[C@@H]1OC[C@H]2Oc1nc2nc(N[C@H]3CCc4cccc(F)c43)c(Cl)cc2[nH]1`, the EC150 is 0.002 µM in series [1] and 1.06 µM with L6.

As to `O[C@@H]1CO[C@H]2[C@@H]1OC[C@H]2Oc1nc2nc(NCc3ccccc3F)c(Cl)cc2[nH]1`, in series [1], the EC150 came out at 0.048 µM.

On to `CC(=O)Nc1cc(F)c2c(c1)CC[C@@H]2Nc1nc2nc(O[C@@H]3CO[C@H]4[C@@H]3OC[C@H]4O)[nH]c2cc1Cl`, for which the EC150 came out at 0.0047 µM in [1] and 0.584 µM with L6.

Take `CS(=O)(=O)c1ccccc1CNc1nc2nc(O[C@@H]3CO[C@H]4[C@@H]3OC[C@H]4O)[nH]c2cc1Cl`: the EC150 in [1] amounted to 23 µM.

Usually IC50 stands for the concentration that inhibits the measured activity by half. Read a low IC50 as inhibition by little substance. The fraction unbound is the share of the substance not bound to proteins or other matrix. As usually defined, the Cmax is the maximum level reached in the sampled fluid or tissue. For orientation: clearance means a measure of how efficiently the substance is removed, as volume per time. Broadly, the AUC is the area under the concentration-time curve, a measure of exposure. High values mean high exposure, low ones low exposure.
